We go through two molecules from patent US20240316059A1, “PEPTIDE DRUG CONJUGATES” (Oncopeptides AB, priority 2021, published 2024).

Like-named read-outs stand apart in the source and are kept apart here.

Data set [1] concerns MM.1S cells. In words: In vitro cytotoxic potency in MM.1S cell viability assay (CellTiter-Glo). It is filed as cell-based, human. Conditions: Homo sapiens, MM1.S, 72 h. An outline of the steps:
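Log-phase MM.1S cells in supplemented RPMI 1640 were seeded at 100000 cells/mL with compound (0.2% DMSO final). After 72 h at 37 °C in CO2, viability was measured by CellTiter-Glo 2.0 luminescence.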
A general note: Cellular ATP, detected with luciferase, serves as a proxy for viable cell number.

In data set [2] the test system is THP-1. Kind of data set: In vitro cytotoxicity, THP-1 (Acute Myeloid Leukemia). It is filed as cell-based. Particulars: Homo sapiens, THP-1, 72 h, read-out: Cytotoxicity IC50, THP-1. How it is done:
(§1) All cells were cultivated in RPMI medium 1640 (IX). All media was supplemented with 10 μg/μl penicillin/streptomycin, 10% heat inactivated FBS, 0.1 mM Sodium Pyruvate, 1×MEM NEAA (ThermoFisher) and 1 mM HEPES. The DERL-2 cells had higher FBS (20%) and 40 ng/mL IL-2 was added. hPBMCs were thawed and allowed to acclimatise overnight and then stimulated with 10 μg/mL PHA-M and 40 ng/mL IL-2 for 4 hours before being exposed to test compounds. All cells, except for hPBMCs, were grown to reach log phase before being exposed to the test compounds.
(§2) Test compounds were dissolved in 100% DMSO and added to a 384 assay plate. Additional DMSO was added to maintain the same final DMSO concentration (0.2%) in all wells. 25 μL cell suspension with a concentration of 100000 cells/mL was added to each well. The cells were cultured in a CO2 incubator at 37° C. for 72 h. Plates were equilibrated to room temperature for 30 minutes before adding 20 μL CellTiter-Glo® 2.0 (Promega) reagent to all wells. The plate was then allowed to stabilize for 20 minutes before recording the luminescence (Em filter 700 nm) in an Envision plate reader.

Data set [3] has as its system EJM. In words: In vitro cytotoxicity, EJM (Multiple Myeloma). The class given is cell-based. Particulars: Homo sapiens, 72 h, read-out: Cytotoxicity IC50, EJM. How it is done: as §1, §2
In data set [4] the test system is KMS-12-BM. Kind of data set: In vitro cytotoxicity, KMS-12-BM (Multiple Myeloma). Conditions: Homo sapiens, 72 h, read-out: Cytotoxicity IC50, KMS-12-BM. The class given is cell-based. How it is done: as §1, §2
Data set [5] relates to OPM-2. Kind of data set: In vitro cytotoxicity, OPM-2 (Multiple Myeloma). Conditions: Homo sapiens, OPM-2, 72 h, read-out: Cytotoxicity IC50, OPM-2. It is filed as cell-based. How it is done:
as §1, §2

In data set [6] the test system is U266. In words: In vitro cytotoxicity, U266 (Multiple Myeloma). Conditions: Homo sapiens, U-266, 72 h, read-out: Cytotoxicity IC50, U266. The class given is cell-based. How it is done:
as §1, §2

The subject of data set [7] is HG-3. Kind of data set: In vitro cytotoxicity, HG-3 (Chronic Lymphocytic Leukemia). It is filed as cell-based. Particulars: Homo sapiens, HG-3, 72 h, read-out: Cytotoxicity IC50, HG-3. How it is done:
as §1, §2

Data set [8] in a line: In vitro cytotoxicity, BJ fibroblasts (normal cells). The class given is cell-based. Conditions: human, CellTiter-Glo 2.0. How it is done: as §1, §2
Data set [9] concerns SU-DHL-4 human lymphoma cell line. In words: In ovo chicken embryo xenograft model, tumour weight. It is filed as in vivo. Conditions: 100 μL injected day 11, 13, 15, 17, tumours weighed day 18. How it is done:
Methods: Inoculation of Fertilized White Leghorn eggs was performed with 3×10^6 SU-DHL-4 tumour cells on day 9 (post-fertilisation). Viable eggs were injected with 100 μL of either Example compound 1 (8.4 uM (0.008 mg/kg), 33.5 uM (0.033 mg/kg), 167.5 uM (0.164 mg/kg)), bendamustine (8.4 uM (0.005 mg/kg), 33.5 uM (0.02 mg/kg), 167.5 uM (0.1 mg/kg)) or vehicle on day 11, 13, 15 and 17. On day 18, tumours were removed and weighed.

Setting [10] is: read-out: Cytotoxicity IC50, MM.1S.

As a reminder, the IC50 is the point on the concentration scale where inhibition reaches its midpoint. For the molecule `Cn1c(CCCC(=O)O)nc2cc(N(CCCl)CCCl)ccc21` [Bendamustine, bendamustine, reference compound], the IC50 in data set [1] (setting [10]) was 24000 nM; in [1] (read-out: MM.1S IC50) it was 24000 nM; in data set [2] it was 40200 nM; in data set [3] it was 64600 nM; in data set [4] it was 27500 nM; in [5], 81900 nM. For the same molecule, the IC50 in data set [6] worked out at 83000 nM; in data set [7], 25800 nM. In data set [8], this molecule returned a 50% inhibitory concentration (IC50) at 72 h greater than 599000 nM. In addition, the “Tumour reduction compared to vehicle” value in [9] (33.5 μM) stood at 30%; in [9] (167.5 μM), 76%.

As to `CCOC(=O)[C@H](CC(C)C)NC(=O)[C@@H](N)CCc1nc2cc(N(CCCl)CCCl)ccc2n1C` [Example 1, Ethyl (2S)-2-[[(2S)-2-amino-4-[5-[bis(2-chloroethyl)amino]-1-methyl-benzimidazol-2-yl]butanoyl]amino]-4-methyl-pentanoate], the half-maximal inhibitory concentration (IC50) in data set [1] (setting [10]) was 6.8 nM; in [1] (read-out: MM.1S IC50), 6.8 nM; in data set [2], 16 nM; in data set [3] it was 27.1 nM; in data set [4], 7.9 nM; in [5] it was 173 nM. Also, the figures for the IC50 in data set [6] and in [7] were 21.4 nM and 25.7 nM, respectively. Besides, in data set [8], the concentration for half-maximal inhibition (IC50) at 72 h was found to be 1070 nM. For the same molecule, the “Tumour reduction compared to vehicle” value in [9] (8.4 μM) stood at 38%; in data set [9] (33.5 μM), 70%; in data set [9] (167.5 μM), 82%.
